Laboratory results taken from patent US9567371B2, “Short beta-defensin-derived peptides” (Yeda Research and Development Co. Ltd., priority 2009, dated 2017).
Peptide text beside a SMILES is read from it.

Legend:
pre-B-ALL G2 cells = experiment: Cell toxicity assay (propidium iodide exclusion, flow cytometry); assay type: cell-based, human; conditions: 6 and 24 h, FIG. 1
Description: FIG. 1. […] G2 cells (1×10^6/ml) were cultured in 96-well flat-bottom wells in serum free IMDEM culture medium supplemented with L-glutamine and antibiotics, for 6 and 24 h at 37° C. with the indicated peptides. Untreated cells served as a control. After treatment, cells were stained with propidium iodide (PI) and its exclusion was analyzed by flow cytometry. Data shown are the percentage of Pr (dead) cells. Vertical bars represent standard deviation of duplicate experiments. *P<0.05 compared to untreated control.
Pre-B-ALL G2 cells and freshly isolated primary human CD3^+ T cells (1×10^6/ml) were cultured in 96-well flat-bottom wells in serum free IMDM or RPMI 1640 medium, respectively, both supplemented with L-glutamine and antibiotics, for 6 and 24 hrs at 37° C. (95% humidity, 5% CO2) with 10 μM, 100 μM or 1 mM of the peptides. Untreated cells served as a control. Cell viability was determined by propidium iodide (PI) exclusion by flow cytometry as described (Goichberg, P., et al., 2006).
In order to test cytotoxicity of the peptides, human pre-B-ALL G2 cells and freshly isolated primary human CD3^+ T cells (1×10^6/ml) were cultured in with 10 μM, 100 μM or 1 mM of TL-1, AK-1 and cyclic TL-1, as described in the Material and Methods. All tested peptides were not toxic for G2 cells (FIG. 1) as well as for primary human T cells at 10 μM and 100 μM. Even in the highest concentration, 1 mM, the peptides killed only 8-12% and 14-16% cells treated for 6 and 24 hrs, respectively, indicating a very low cytotoxicity of the peptides.

SDF-1 = SDF-1 plasma levels in injected mice (ELISA); assay type: in vivo, mouse; conditions: 5 mg/kg s.c., compared with mice injected with PBS
Description: (§1) SDF-1 levels in tested samples were determined by ELISA as described (Kalinkovich, A., et al., 2006) where the K15C monoclonal antibodies (mAb, INRA, Paris, France) recognizing the first three amino acids of SDF-1 were utilized as a capture Ab (10 μg/mL) in order to measure levels of intact, non-cleaved SDF-1. Levels of basic FGF (bFGF) and HGF in tested samples were determined by using corresponding capture mAbs and polyclonal biotynilated Abs (R&D Systems) as recommended by the manufacturer. In order to examine SDF-1, bFGF and HGF levels in cell supernatants, MS-5, MBA-15 and MG-63 cells were seeded in 24-well Costar wells and cultivated in RPMI 1640 or αMEM Eagle medium, respectively, with 10% FCS. When the cells reached confluence, the medium was changed to serum free medium and cells were cultivated for additional 6 hrs in the presence of various concentrations of the peptides. Medium samples were collected and centrifuged 10 min at 6000×g at 4° C. to remove cell debris. Supernatants were collected and kept at −70° C. until tested.

MBA-15 cells = experiment: SDF-1, bFGF and HGF secretion by stromal cells (ELISA of supernatants); assay type: cell-based, mouse; conditions: 10 μM, compared with untreated cells
Description: (§2) FIGS. 7A-7F. Effect of TL-1, AK-1 and cyclic TL-1 on SDF-1, bFGF and HGF secretion by different stromal cell lines. MS-5, MBA-15 and MG-63 cells were co-cultured with 10 μM TL-1, AK-1 or cyclic TL-1 in the serum free medium for 6 hrs, or without added peptide (UT). Levels of SDF-1 (A-C), bFGF (D) and HGF (E, F) were detected in the collected supernatants by ELISA. Data shown are the mean±SD of 2 separate experiments. *P<0.05 compared to control.
as §1
(§3) Because BM stromal cells, such as endosteal bone lining osteoblasts and endothelial cells are the main source of human and murine SDF-1, the capability of the peptides to affect SDF-1 secretion by mouse stromal MS-5 and MBA-15 cells, and human osteoblast MG-63 cells was examined.
(§4) In order to examine the capability of the peptides to induce secretion of other proteins, the levels of Hepatocyte growth factor (HGF) and Basic fibroblast growth factor (bFGF) were detected in the same supernatants.

MS-5 cells = experiment: as above; assay type: cell-based, mouse; conditions: 10 μM, compared with untreated cells
Description: as §2, §1, §3, §4

MG-63 cells = experiment: as above; assay type: cell-based, human; conditions: 10 μM, compared with untreated cells
Description: as §2
as §1, with “When the cells reached confluence, the medium was changed to serum free medium and cells were cultivated for additional 6 hrs in the presence of various concentrations of the peptides. Medium samples were collected and centrifuged 10 min at 6000×g at 4° C. to remove cell debris. Supernatants were collected and kept at −70° C. until tested.” left out
as §4

N=C(N)NCCC[C@H](NC(=O)CNC(=O)[C@@H](N)CO)C(=O)N[C@@H](CCCCN)C(=O)N[C@@H](CS)C(=O)N[C@@H](CS)C(=O)N[C@@H](CCCNC(=N)N)C(=O)N[C@@H](CCCCN)C(=O)N[C@@H](CCCCN)C(=O)N[C@@H](CCCCN)C(=O)O [AK-1, SGRKCCRKKK] (H-SGRKCCRKKK-OH)
cellular toxicity (percentage of PI+ dead cells) (pre-B-ALL G2 cells): Low cellular toxicity

c1cc(CN2CCCNCCNCCCNCC2)ccc1CN1CCCNCCNCCCNCC1 [AMD3100, reference compound]
SDF-1 plasma levels (SDF-1): significant elevation | levels of SDF-1 in supernatants (MBA-15 cells): did not affect | levels of SDF-1 in supernatants (MS-5 cells): did not affect | levels of SDF-1 in supernatants (MG-63 cells): did not affect

N=C(N)NCCC[C@H](NC(=O)CNC(=O)[C@@H](N)CCCNC(=N)N)C(=O)N[C@@H](CCCCN)C(=O)N[C@@H](CS)C(=O)N[C@@H](CS)C(=O)N[C@@H](CCCNC(=N)N)C(=O)N[C@@H](CCCNC(=N)N)C(=O)N[C@@H](CCCCN)C(=O)N[C@@H](CCCCN)C(=O)O [TL-1, RGRKCCRRKK] (H-RGRKCCRRKK-OH)
cellular toxicity (percentage of PI+ dead cells) (pre-B-ALL G2 cells): Low cellular toxicity
